Test results from ChEMBL document CHEMBL5678810.

What was measured:
[1] = target: TRAF2 and NCK-interacting protein kinase (Homo sapiens) (UniProt Q9UKE5); assay: Inhibition of T7 bacteriophage fused human TNIK at 10 uM by KINOMEscan analysis relative to control
[2] = target: Serine/threonine-protein kinase 35 (Homo sapiens) (UniProt Q8TDR2); assay: Inhibition of T7 bacteriophage fused human STK35 at 10 uM by KINOMEscan analysis relative to control
[3] = target: NUAK family SNF1-like kinase 2 (Homo sapiens) (UniProt Q9H093); assay: Inhibition of T7 bacteriophage fused human SNARK at 10 uM by KINOMEscan analysis relative to control
[4] = target: NT-3 growth factor receptor (Homo sapiens) (UniProt Q16288); assay: Inhibition of T7 bacteriophage fused human TRKC at 10 uM by KINOMEscan analysis relative to control
[5] = target: Peripheral plasma membrane protein CASK (Homo sapiens) (UniProt O14936); assay: Inhibition of T7 bacteriophage fused human CASK at 10 uM by KINOMEscan analysis relative to control
[6] = target: Serine/threonine-protein kinase Sgk3 (Homo sapiens) (UniProt Q96BR1); assay: Inhibition of T7 bacteriophage fused human SGK3 at 10 uM by KINOMEscan analysis relative to control
[7] = target: Tyrosine-protein kinase Srms (Homo sapiens) (UniProt Q9H3Y6); assay: Inhibition of T7 bacteriophage fused human SRMS at 10 uM by KINOMEscan analysis relative to control
[8] = target: Mitogen-activated protein kinase kinase kinase 12 (Homo sapiens) (UniProt Q12852); assay: Inhibition of T7 bacteriophage fused human DLK at 10 uM by KINOMEscan analysis relative to control; values are per cent of control
[9] = target: Wee1-like protein kinase (Homo sapiens) (UniProt P30291); assay: Inhibition of T7 bacteriophage fused human WEE1 at 10 uM by KINOMEscan analysis relative to control
[10] = Inhibition of T7 bacteriophage fused Plasmodium falciparum CDPK1 at 10 uM by KINOMEscan analysis relative to control; details: condition cancer
[11] = target: Cyclin-dependent kinase 2 homolog (Plasmodium falciparum (isolate K1 / Thailand)) (UniProt Q07785); assay: Inhibition of T7 bacteriophage fused Plasmodium falciparum PK5 at 10 uM by KINOMEscan analysis relative to control
[12] = target: Serine/threonine-protein kinase 33 (Homo sapiens) (UniProt Q9BYT3); assay: Inhibition of T7 bacteriophage fused human STK33 at 10 uM by KINOMEscan analysis relative to control
[13] = target: T1, Dual specificity protein kinase TTK (Homo sapiens) (UniProt P33981); assay: Inhibition of T7 bacteriophage fused human TTK at 10 uM by KINOMEscan analysis relative to control
T1 sequence (whole entry): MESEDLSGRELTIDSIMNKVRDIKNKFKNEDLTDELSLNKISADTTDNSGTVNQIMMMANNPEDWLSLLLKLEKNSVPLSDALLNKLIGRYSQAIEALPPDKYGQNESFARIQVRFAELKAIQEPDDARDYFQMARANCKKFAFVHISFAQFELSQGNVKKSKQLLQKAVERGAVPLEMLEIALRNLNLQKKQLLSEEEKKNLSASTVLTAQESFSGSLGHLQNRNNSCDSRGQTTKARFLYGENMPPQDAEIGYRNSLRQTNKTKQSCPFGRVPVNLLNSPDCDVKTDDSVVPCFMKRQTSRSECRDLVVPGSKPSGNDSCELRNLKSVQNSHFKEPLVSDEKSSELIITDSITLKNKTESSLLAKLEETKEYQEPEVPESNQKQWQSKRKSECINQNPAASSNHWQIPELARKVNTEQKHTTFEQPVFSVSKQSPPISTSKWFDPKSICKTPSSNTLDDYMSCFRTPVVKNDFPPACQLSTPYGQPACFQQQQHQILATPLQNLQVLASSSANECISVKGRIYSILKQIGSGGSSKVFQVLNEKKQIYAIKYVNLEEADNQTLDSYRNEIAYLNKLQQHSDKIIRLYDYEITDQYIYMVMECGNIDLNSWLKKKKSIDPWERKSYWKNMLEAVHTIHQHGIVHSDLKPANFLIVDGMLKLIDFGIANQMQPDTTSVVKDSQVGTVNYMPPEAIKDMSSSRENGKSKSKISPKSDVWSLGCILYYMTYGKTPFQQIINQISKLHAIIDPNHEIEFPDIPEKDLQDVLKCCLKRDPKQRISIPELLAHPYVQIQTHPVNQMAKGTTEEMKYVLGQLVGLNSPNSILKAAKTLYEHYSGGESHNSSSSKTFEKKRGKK

[14] = target: Microtubule-associated serine/threonine-protein kinase 1 (Homo sapiens) (UniProt Q9Y2H9); assay: Inhibition of T7 bacteriophage fused human MAST1 at 10 uM by KINOMEscan analysis relative to control; values are per cent of control
[15] = target: TGF-beta receptor type-1 (Homo sapiens) (UniProt P36897); assay: Inhibition of T7 bacteriophage fused human TGFBR1 at 10 uM by KINOMEscan analysis relative to control
[16] = target: High affinity nerve growth factor receptor (Homo sapiens) (UniProt P04629); assay: Inhibition of T7 bacteriophage fused human TRKA at 10 uM by KINOMEscan analysis relative to control
[17] = target: SRSF protein kinase 1 (Homo sapiens) (UniProt Q96SB4); assay: Inhibition of T7 bacteriophage fused human SRPK1 at 10 uM by KINOMEscan analysis relative to control
[18] = target: Serine/threonine-protein kinase tousled-like 2 (Homo sapiens) (UniProt Q86UE8); assay: Inhibition of T7 bacteriophage fused human TLK2 at 10 uM by KINOMEscan analysis relative to control
[19] = target: Tyrosine-protein kinase Tec (Homo sapiens) (UniProt P42680); assay: Inhibition of T7 bacteriophage fused human TEC at 10 uM by KINOMEscan analysis relative to control
[20] = target: Proto-oncogene tyrosine-protein kinase Src (Homo sapiens) (UniProt P12931); assay: Inhibition of T7 bacteriophage fused human SRC at 10 uM by KINOMEscan analysis relative to control
[21] = target: Serine/threonine-protein kinase SIK2 (Homo sapiens) (UniProt Q9H0K1); assay: Inhibition of T7 bacteriophage fused human SIK2 at 10 uM by KINOMEscan analysis relative to control
[22] = target: Serine/threonine-protein kinase SIK1 (Homo sapiens) (UniProt P57059); assay: Inhibition of T7 bacteriophage fused human SIK at 10 uM by KINOMEscan analysis relative to control
[23] = target: Tyrosine-protein kinase Yes (Homo sapiens) (UniProt P07947); assay: Inhibition of T7 bacteriophage fused human YES at 10 uM by KINOMEscan analysis relative to control
[24] = target: SNF-related serine/threonine-protein kinase (Homo sapiens) (UniProt Q9NRH2); assay: Inhibition of T7 bacteriophage fused human SNRK at 10 uM by KINOMEscan analysis relative to control

Chain of Cyclin-dependent kinase 2 homolog (Plasmodium falciparum (isolate K1 / Thailand)) (Q07785 whole entry, the tested form may be a part): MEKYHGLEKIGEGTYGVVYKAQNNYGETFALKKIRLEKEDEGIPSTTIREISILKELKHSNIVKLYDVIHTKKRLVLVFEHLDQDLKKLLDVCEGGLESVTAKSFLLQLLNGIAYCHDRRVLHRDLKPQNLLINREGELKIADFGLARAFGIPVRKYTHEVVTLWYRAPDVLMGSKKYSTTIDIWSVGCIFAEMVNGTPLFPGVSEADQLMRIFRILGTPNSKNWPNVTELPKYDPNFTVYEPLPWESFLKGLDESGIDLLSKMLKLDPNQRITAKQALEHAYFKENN
Chain of NT-3 growth factor receptor (Homo sapiens) (Q16288 32-839 limits assumed): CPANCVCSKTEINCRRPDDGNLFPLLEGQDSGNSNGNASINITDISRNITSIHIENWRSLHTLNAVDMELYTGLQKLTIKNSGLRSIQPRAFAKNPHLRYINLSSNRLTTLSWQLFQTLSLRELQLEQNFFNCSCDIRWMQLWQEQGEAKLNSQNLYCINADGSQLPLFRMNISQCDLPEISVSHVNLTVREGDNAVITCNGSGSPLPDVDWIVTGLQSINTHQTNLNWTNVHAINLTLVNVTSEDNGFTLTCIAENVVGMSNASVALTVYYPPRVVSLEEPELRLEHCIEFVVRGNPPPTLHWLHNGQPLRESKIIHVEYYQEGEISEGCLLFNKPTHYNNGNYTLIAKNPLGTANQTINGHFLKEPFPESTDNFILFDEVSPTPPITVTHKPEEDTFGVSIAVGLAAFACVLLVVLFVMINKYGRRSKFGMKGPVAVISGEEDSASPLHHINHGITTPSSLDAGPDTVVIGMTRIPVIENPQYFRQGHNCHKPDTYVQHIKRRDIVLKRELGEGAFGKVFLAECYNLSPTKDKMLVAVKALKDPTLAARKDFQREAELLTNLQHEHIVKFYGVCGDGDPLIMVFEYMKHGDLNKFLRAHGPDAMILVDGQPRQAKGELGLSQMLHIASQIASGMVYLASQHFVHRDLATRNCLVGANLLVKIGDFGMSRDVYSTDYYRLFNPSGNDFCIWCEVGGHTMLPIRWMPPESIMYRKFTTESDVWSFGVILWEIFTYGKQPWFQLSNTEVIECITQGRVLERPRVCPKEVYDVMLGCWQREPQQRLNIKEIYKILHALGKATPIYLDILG
Chain of Tyrosine-protein kinase Tec (Homo sapiens) (P42680 whole entry, looked up, the tested form may be a part): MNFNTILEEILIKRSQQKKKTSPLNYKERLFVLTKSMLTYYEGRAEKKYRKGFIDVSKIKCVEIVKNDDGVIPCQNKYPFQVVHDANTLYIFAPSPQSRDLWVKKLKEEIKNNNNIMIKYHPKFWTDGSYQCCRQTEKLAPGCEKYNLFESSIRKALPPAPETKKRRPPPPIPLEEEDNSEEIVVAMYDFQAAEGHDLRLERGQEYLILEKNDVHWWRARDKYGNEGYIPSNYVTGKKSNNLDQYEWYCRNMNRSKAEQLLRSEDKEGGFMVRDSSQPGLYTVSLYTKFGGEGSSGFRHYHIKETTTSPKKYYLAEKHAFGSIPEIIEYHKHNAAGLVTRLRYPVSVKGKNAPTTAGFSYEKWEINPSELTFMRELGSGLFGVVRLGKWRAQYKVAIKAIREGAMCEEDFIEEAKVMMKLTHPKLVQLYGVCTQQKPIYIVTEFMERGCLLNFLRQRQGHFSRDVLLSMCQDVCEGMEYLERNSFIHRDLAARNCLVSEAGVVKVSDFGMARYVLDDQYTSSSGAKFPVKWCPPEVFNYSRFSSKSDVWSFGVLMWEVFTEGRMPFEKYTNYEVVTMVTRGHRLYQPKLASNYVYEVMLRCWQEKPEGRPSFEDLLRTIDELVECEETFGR
Chain of TRAF2 and NCK-interacting protein kinase (Homo sapiens) (Q9UKE5 whole entry, looked up, the tested form may be a part): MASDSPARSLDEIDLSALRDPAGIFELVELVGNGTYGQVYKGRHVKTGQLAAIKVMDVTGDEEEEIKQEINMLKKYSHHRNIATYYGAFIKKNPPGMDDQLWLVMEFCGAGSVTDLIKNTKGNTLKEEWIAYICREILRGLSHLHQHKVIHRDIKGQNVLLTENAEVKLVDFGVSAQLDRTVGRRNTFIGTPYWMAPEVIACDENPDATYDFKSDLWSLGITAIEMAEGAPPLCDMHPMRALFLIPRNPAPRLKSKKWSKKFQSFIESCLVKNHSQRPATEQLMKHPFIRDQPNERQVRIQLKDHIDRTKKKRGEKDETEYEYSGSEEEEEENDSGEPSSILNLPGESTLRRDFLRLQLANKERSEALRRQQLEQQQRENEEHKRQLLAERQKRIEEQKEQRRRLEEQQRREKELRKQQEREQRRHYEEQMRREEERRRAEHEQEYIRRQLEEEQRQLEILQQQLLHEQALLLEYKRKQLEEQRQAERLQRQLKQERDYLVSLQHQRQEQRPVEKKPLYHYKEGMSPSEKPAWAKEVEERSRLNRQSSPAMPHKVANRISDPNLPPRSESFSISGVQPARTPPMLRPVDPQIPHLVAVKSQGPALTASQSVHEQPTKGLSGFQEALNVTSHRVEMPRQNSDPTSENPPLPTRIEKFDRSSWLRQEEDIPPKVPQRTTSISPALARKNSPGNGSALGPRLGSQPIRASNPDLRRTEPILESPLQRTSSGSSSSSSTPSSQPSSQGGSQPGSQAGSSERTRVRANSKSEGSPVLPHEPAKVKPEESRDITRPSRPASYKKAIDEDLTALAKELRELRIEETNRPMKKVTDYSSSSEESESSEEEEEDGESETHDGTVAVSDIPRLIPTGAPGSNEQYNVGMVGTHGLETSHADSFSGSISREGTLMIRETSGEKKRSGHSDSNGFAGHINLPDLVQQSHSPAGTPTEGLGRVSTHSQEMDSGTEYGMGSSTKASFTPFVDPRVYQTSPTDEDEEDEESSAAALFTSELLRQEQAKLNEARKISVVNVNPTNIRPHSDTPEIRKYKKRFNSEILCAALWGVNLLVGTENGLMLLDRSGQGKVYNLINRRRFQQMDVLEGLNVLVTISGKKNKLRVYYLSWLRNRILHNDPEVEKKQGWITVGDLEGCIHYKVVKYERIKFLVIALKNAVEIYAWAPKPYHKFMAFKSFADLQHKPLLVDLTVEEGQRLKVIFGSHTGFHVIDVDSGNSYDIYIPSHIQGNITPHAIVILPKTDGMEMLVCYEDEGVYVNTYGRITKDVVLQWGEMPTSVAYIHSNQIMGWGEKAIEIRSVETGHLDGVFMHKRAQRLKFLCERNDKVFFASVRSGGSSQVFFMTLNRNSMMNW
Chain of Microtubule-associated serine/threonine-protein kinase 1 (Homo sapiens) (Q9Y2H9 whole entry, looked up, the tested form may be a part): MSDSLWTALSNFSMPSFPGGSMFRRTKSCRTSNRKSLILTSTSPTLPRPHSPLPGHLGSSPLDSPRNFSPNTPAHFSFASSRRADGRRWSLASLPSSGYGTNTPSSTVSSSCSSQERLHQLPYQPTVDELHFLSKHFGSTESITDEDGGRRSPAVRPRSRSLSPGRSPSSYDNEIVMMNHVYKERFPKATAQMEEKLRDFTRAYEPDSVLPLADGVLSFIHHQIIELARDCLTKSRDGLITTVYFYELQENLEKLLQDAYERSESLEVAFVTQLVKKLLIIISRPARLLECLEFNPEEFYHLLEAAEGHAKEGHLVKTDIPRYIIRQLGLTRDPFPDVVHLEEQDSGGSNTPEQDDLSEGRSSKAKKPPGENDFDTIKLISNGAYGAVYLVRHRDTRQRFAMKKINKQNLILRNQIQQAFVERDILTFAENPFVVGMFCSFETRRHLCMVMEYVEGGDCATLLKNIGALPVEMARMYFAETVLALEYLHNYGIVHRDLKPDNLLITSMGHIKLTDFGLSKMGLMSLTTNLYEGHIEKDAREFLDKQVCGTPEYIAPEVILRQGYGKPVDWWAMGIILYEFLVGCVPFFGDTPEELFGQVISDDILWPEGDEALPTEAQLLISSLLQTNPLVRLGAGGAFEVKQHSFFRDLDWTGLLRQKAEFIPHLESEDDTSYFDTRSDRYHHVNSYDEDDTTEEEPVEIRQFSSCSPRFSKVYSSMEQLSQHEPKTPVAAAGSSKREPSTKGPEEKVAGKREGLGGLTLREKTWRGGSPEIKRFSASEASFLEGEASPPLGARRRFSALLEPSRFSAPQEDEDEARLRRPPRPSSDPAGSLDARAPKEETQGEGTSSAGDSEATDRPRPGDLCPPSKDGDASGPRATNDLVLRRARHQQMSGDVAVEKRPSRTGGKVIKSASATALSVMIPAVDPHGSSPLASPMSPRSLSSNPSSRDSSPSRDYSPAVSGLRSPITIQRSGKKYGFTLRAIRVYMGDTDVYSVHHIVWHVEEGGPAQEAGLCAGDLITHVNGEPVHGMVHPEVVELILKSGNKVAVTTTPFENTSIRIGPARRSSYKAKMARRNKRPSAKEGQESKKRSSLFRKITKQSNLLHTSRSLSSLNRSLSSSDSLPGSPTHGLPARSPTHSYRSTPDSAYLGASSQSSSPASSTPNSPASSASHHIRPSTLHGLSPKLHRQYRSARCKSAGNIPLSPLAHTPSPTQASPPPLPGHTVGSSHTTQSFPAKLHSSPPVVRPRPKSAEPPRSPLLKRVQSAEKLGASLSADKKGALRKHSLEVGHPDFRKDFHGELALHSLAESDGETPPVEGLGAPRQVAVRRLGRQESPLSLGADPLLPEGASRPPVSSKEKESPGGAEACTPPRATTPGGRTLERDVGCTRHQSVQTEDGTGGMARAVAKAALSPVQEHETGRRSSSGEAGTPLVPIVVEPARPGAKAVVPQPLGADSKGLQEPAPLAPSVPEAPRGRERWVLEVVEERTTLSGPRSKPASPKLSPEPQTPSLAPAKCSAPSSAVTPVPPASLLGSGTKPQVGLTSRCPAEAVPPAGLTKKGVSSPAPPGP

Row | Structure (SMILES) | inhibition [1] [%] | inhibition [2] [%] | inhibition [3] [%] | inhibition [4] [%] | inhibition [5] [%] | inhibition [6] [%] | inhibition [7] [%] | residual activity [8] [%] | inhibition [9] [%] | inhibition at 10 µM [10] [%] | inhibition [11] [%] | inhibition [12] [%] | inhibition [13] [%] | residual activity [14] [%] | inhibition [15] [%] | inhibition [16] [%] | inhibition [17] [%] | inhibition [18] [%] | inhibition [19] [%] | inhibition [20] [%] | further results
1 | COc1cc(C(=O)N2CCC(N3CCN(C)CC3)CC2)ccc1Nc1ncc2c(n1)N(C1CCCC1)c1ccccc1C(=O)N2C | 100 | 100 | 100 | 100 | 100 | 100 | 100 | – | – | – | – | – | – | – | – | – | – | – | – | – | –
2 | COc1cc(N2CCC(N3CCN(C)CC3)CC2)ccc1Nc1ncc2c(n1)N(C)c1ccccc1C(=O)N2C | 100 | 100 | 47 | 100 | 85 | 95 | 77 | 81 | 100 | 100 | 100 | 10 | 28 | 100 | 100 | 69 | 94 | 99 | 100 | 100 | inhibition [21]: 98%; inhibition [22]: 77%; inhibition [23]: 100%; inhibition [24]: 94%
3 | CCOc1cc(C(=O)N2CCC(N3CCN(C)CC3)CC2)ccc1Nc1ncc2c(n1)N(C1CCCC1)c1ccccc1C(=O)N2C | – | – | – | – | – | – | – | 100 | 100 | 100 | 100 | 100 | 49 | 100 | 100 | 100 | 100 | 100 | 100 | 100 | inhibition [21]: 100%; inhibition [22]: 100%; inhibition [23]: 100%; inhibition [24]: 52%
